≈ marks a conversion by molar mass, not a printed value.
Details: for aqueous solubility: pH 6.8

| Structure (SMILES) | MDR1-MDCK efflux ratio | intrinsic clearance, human liver microsomes [mL/min/kg] | intrinsic clearance, rat liver microsomes [mL/min/kg] | aqueous solubility [µg/mL] | fraction unbound, human plasma |
| --- | --- | --- | --- | --- | --- |
| Cn1cc(NC(=O)[C@@H]2CCCCN2C(=O)OC(C)(C)C)cn1 | 4.1 | ≤ 4.74 | 28.2 | 67.2 (≈ 218 µM) |  |
| N#Cc1cc(Oc2ccc3c(c2)CCC3)ncn1 | 0.408 | 66.7 | 283 |  |  |
| Cc1ccsc1CN(C)C(=O)[C@@H]1CCCN1C(=O)NC(C)C | 23.7 | 13 | 355 | 42.1 (≈ 130 µM) |  |
| COc1ccc2c(-c3ccccc3)cc3nnnn3c2c1 | 0.48 |  |  | 0.15 (≈ 0.543 µM) |  |
| COc1ncc(-c2cccc(N(C)C)c2)c(OC)n1 |  | 193 | 2230 | 24.9 (≈ 96 µM) |  |
| O=C1CCCN1C(=O)COc1cccc(-c2nnco2)c1 | 0.91 | ≤ 4.74 | 27.5 | 54.9 (≈ 191 µM) |  |
| O=C(C1CCCCC1)N1CCC[C@H]1Cn1nnc(-c2cccs2)n1 |  | 130 | 5120 |  |  |
| Cc1nc(-c2ccccc2)c(C(=O)Nc2ccc(Cl)c(Cl)c2)s1 | 0.73 | 89.2 | 2390 |  |  |
| Cc1cn[nH]c1C1(C)CCN(Cc2cnn(C)c2)CC1 | 22.6 | ≤ 4.74 | 79.1 | 28.4 (≈ 104 µM) |  |
| Cc1ccccc1OC1CCN(C(=O)Nc2ccc3c(c2)ncn3C)CC1 | 8.7 | 11.4 | 54.5 | 26.7 (≈ 73.4 µM) |  |
| Cc1ccnc(NC(=O)c2ccnc(C)n2)c1 |  | 137 | 569 |  |  |
| O=C(NC1(c2ccccc2)CCC1)c1cc(C2CC2)on1 | 0.543 | 8.16 | 192 | 8.8 (≈ 31.2 µM) |  |
| O[C@@H]1CO[C@H]2C[C@@H]1Nc1c(Cc3ccccc3)cccc12 | 0.47 | 33.5 | 354 | 30 (≈ 106 µM) |  |
| Cc1ccc(-n2cc(C(=O)NCCN(C)C)nn2)cc1C | 3.18 | ≤ 4.74 | 189 | 28.4 (≈ 98.9 µM) |  |
| Cc1cc(Nc2nnc(C)s2)cc(C2CN(C(=O)c3c(C(C)C)noc3C)CCO2)n1 (configuration not stated) | 54.3 | 22.5 | 151 |  |  |
| Cc1cccc(Oc2ncccc2N)c1C | 0.588 | 11.7 | 308 | 45.3 (≈ 212 µM) |  |
| COc1ccc(CNC(=O)c2nnn(-c3ccc(OC)cc3)c2N)cc1 | 0.513 | 7.49 | 80.4 | 11.5 (≈ 32.7 µM) |  |
| COc1ccc(CN2CCN(c3cc(C)nc(N)n3)CC2)cc1OC | 5.7 | ≤ 4.74 | ≤ 10.7 | 53.6 (≈ 156 µM) |  |
| O=c1[nH]c(=O)n([C@H]2C[C@H](O)[C@@H](CO)O2)cc1C(F)(F)F |  | 41.9 | ≤ 10.7 |  |  |
| Cc1ccc(S(=O)(=O)N2CCCc3ccc(NS(=O)(=O)c4cc(F)ccc4F)cc32)cc1 |  | 244 | 2260 |  |  |

| Structure (SMILES) | MDR1-MDCK efflux ratio | intrinsic clearance, human liver microsomes [mL/min/kg] | intrinsic clearance, rat liver microsomes [mL/min/kg] | aqueous solubility [µg/mL] | fraction unbound, human plasma |
| --- | --- | --- | --- | --- | --- |
| CC(C)CCN1CCc2nc3cc(C4CC4)nn3c(O)c2C1 | 9.05 | 7.62 | 30.3 |  |  |
| CCN(CC)S(=O)(=O)c1ccc2c(c1)CCN2CC(=O)NCc1ccccc1F | 9.92 | 337 | 1800 | 43.7 (≈ 104 µM) |  |
| C=CCNc1ncc(-c2cnccn2)c(C2CC2)n1 | 0.531 | 13 | 734 |  |  |
| Cc1csc(N2CCN(Cc3ccc(OCC(F)(F)F)nc3)CC2)n1 | 0.655 | 22.7 | 106 | 31 (≈ 83.3 µM) |  |
| Cc1ccc(S(=O)(=O)N2CCC[C@H](C(=O)NC3CCOCC3)C2)cc1 | 20.9 | ≤ 4.74 | 581 | 54.1 (≈ 148 µM) |  |
| CCOc1cc(N(C)CC2CCN(C)CC2)ncn1 | 1.55 | 20.1 | 561 |  |  |
| Cc1ccc(S(=O)(=O)NC(=O)c2c(C)cc3n2CCn2c(C)ccc2-3)cc1 |  |  |  | 33.1 (≈ 86.3 µM) |  |
| COCCCNc1ncc(-c2cc(C)no2)c(C(C)C)n1 | 0.439 | 33.4 | 5960 |  |  |
| Cn1cncc1CCNC(=O)[C@H]1CC1(C)C | 8.23 | ≤ 4.74 | ≤ 10.7 | 28.8 (≈ 130 µM) |  |
| Cc1ccc2cccc(OCC(=O)N(C)c3ccccc3)c2n1 | 1.52 | 126 | 482 | 55 (≈ 179 µM) |  |
| Cc1nc(-c2cccc(-c3ccc(C(=O)NC[C@@H]4CCCN4)cc3)c2)no1 | 113 | ≤ 4.74 | 30.1 |  |  |
| CC(C)(O)CCn1cc2cc(NC(=O)c3ccn(C(F)F)n3)c(OCC3COC3)cc2n1 | 11.8 | ≤ 4.74 | 13.3 |  |  |
| O=C(Cn1ccnc1)NCc1ccccc1F |  | ≤ 4.74 | ≤ 10.7 | 48.8 (≈ 209 µM) |  |
| Clc1ccc(NCc2ccoc2)nn1 | 0.594 | ≤ 4.74 | ≤ 10.7 | 21.5 (≈ 102 µM) |  |
| COc1ccc(OC)c(Cn2cnc3cn(C)nc3c2=O)c1 | 2.56 | ≤ 4.74 | 50.8 |  |  |
| Cc1ccc(C(=O)COC(=O)c2cc(O)nc3ccccc23)cc1 | 0.502 |  |  | 0.69 (≈ 2.15 µM) |  |
| COC(=O)[C@]12CCC(C)(C)CC1C1C(=O)C=C3[C@@]4(C)C=C(C#N)C(=O)C(C)(C)[C@@H]4CC[C@@]3(C)[C@]1(C)CC2 (some centres not stated) |  | 93.5 | 323 | 3.15 (≈ 6.23 µM) |  |
| Cc1ccc(C(=O)NCC#Cc2ccccc2)cn1 | 0.579 | ≤ 4.74 | 18.8 | 44.5 (≈ 178 µM) |  |
| COc1ccc(CN2CCC(c3cc[nH]n3)CC2)cn1 |  | ≤ 4.74 | 103 |  |  |
| N#CCCCN1CCC(c2c[nH]c3ccccc23)CC1 | 0.46 | 23.8 | 1730 | 54.6 (≈ 204 µM) |  |

| Structure (SMILES) | MDR1-MDCK efflux ratio | intrinsic clearance, human liver microsomes [mL/min/kg] | intrinsic clearance, rat liver microsomes [mL/min/kg] | aqueous solubility [µg/mL] | fraction unbound, human plasma |
| --- | --- | --- | --- | --- | --- |
| N#Cc1cc(F)c(C(=O)Nc2ccnc(NC(=O)[C@H]3C[C@H]3F)c2)c(Cl)c1 | 42.6 | ≤ 4.74 |  | 67.5 (≈ 179 µM) |  |
| CCc1cnc(CN2C(=O)NC3(CCC3)C2=O)o1 | 3.63 | ≤ 4.74 | 51.9 | 32.4 (≈ 130 µM) |  |
| c1ccc(-c2nsc(N3CCCN(c4nccs4)CC3)n2)cc1 | 0.656 | 145 | 1470 | 29.6 (≈ 86.2 µM) |  |
| Cc1cnc(-c2nc(NCc3ccccn3)ncc2-c2onc(C)c2C)cn1 | 10.7 | 116 | 1040 | 59 (≈ 158 µM) |  |
| O=C1CC2(CCN(C(=O)NCc3ccccc3)CC2)Oc2ccccc21 | 3.06 | 21.7 | 619 | 4.13 (≈ 11.8 µM) |  |
| CC(C)(C)c1csc(NC(=O)C2CC2)n1 | 0.634 | 20.2 | 89 | 29.2 (≈ 130 µM) |  |
| O=C(CN1CCCC(c2cccc(-c3cccc(Cl)c3)n2)C1)N1CCCC1 (configuration not stated) | 2.16 | 51.4 | 419 | 54.8 (≈ 143 µM) |  |
| CN1CCC(CNc2nccc3cccnc23)CC1 | 0.854 | ≤ 4.74 | 1520 |  |  |
| CC(=O)c1cc(Br)cc(F)c1OCc1ccccn1 | 0.622 | 66 | 316 |  |  |
| CN(C/C=C/C(=O)N1CCC[C@@H](n2nc(-c3ccc(Oc4ccccc4)cc3)c3c(N)ncnc32)C1)CCCCNC(=O)CCCC(=O)NCCCOCCOCCOCCCNC(=O)CCCC[C@@H]1SC[C@@H]2NC(=O)N[C@@H]21 |  | 127 | 87.3 |  |  |
| O=S(=O)(c1ccccc1Cl)N1CCCc2cnc(N3CCOCC3)nc21 | 0.697 |  |  | 1 (≈ 2.53 µM) |  |
| COc1cc(CC(=O)Nc2ccccc2F)ccc1C |  |  |  | 26 (≈ 95.1 µM) |  |
| c1ccc2[nH]c(SCc3cn4ccccc4n3)nc2c1 |  | 86.2 | 462 | 44.9 (≈ 160 µM) |  |
| CC(C(O)c1ccc(O)cc1)N1CCC(Cc2ccccc2)CC1 (configuration not stated) | 1.08 | 150 | 960 | 51.7 (≈ 159 µM) |  |
| COc1ccc(-c2ccc(CN(CCN3CCOCC3)Cc3cccnc3)cc2)cc1 | 1.48 | 447 | 1580 | 63.2 (≈ 151 µM) |  |
| O=C(NCc1cccc(O)c1)Nc1nc(-c2ccncc2)cs1 |  | 97.6 | 246 |  |  |
| Cc1cccnc1NC(=O)CCc1ccc(F)cc1 |  | 6.88 | 764 | 38.1 (≈ 147 µM) |  |
| CC(C)(C)c1ccc(C(O)CN2CCC(O)(c3ccc4c(c3)OCO4)CC2)cc1 (configuration not stated) | 0.698 | 45.8 |  |  | 0.0601 |

Reference: the Biogen ADME set (Fang et al. 2023)
